According to article doi:10.1101/2024.09.05.611349v1 (biorxiv, 2024):
Values after ≈ are worked out from the molar mass of the structure shown. Like-named read-outs stand apart in the source and are kept apart here.

Key:
[1] = test system: Enterococcus faecalis EFA 15-55; assay: microbe, parasite or virus in culture; set-up: species or system gram-positive clinical isolates; conditions: Enterococcus faecalis
[2] = test system: Enterococcus faecalis EFA 15-57; assay: microbe, parasite or virus in culture; set-up: species or system gram-positive clinical isolates; conditions: Enterococcus faecalis
[3] = test system: Enterococcus faecalis EFA 15-60; assay: microbe, parasite or virus in culture; set-up: species or system gram-positive clinical isolates; conditions: Enterococcus faecalis
[4] = test system: Enterococcus faecium EFM 15-1; assay: microbe, parasite or virus in culture; set-up: species or system gram-positive clinical isolates; conditions: Enterococcus faecium
[5] = test system: Enterococcus faecium EFM 15-2; assay: microbe, parasite or virus in culture; set-up: species or system gram-positive clinical isolates; conditions: Enterococcus faecium
[6] = test system: Enterococcus faecium EFM 15-52; assay: microbe, parasite or virus in culture; set-up: species or system gram-positive clinical isolates; conditions: Enterococcus faecium
[7] = test system: Enterococcus faecium EFM 15-6; assay: microbe, parasite or virus in culture; set-up: species or system gram-positive clinical isolates; conditions: Enterococcus faecium
[8] = test system: Staphylococcus aureus MRSA 15-1; assay: microbe, parasite or virus in culture; set-up: species or system gram-positive clinical isolates; conditions: Staphylococcus aureus, MRSA
[9] = test system: Staphylococcus aureus MRSA 15-3; assay: microbe, parasite or virus in culture; set-up: species or system gram-positive clinical isolates; conditions: Staphylococcus aureus, MRSA
[10] = test system: Staphylococcus aureus MRSA 17-10; assay: microbe, parasite or virus in culture; set-up: species or system gram-positive clinical isolates; conditions: Staphylococcus aureus, MRSA
[11] = test system: Staphylococcus aureus MRSA 17-7; assay: microbe, parasite or virus in culture; set-up: species or system gram-positive clinical isolates; conditions: Staphylococcus aureus, MRSA
[12] = test system: Staphylococcus aureus MRSA 17-8; assay: microbe, parasite or virus in culture; set-up: species or system gram-positive clinical isolates; conditions: Staphylococcus aureus, MRSA
[13] = test system: Staphylococcus aureus MRSA 17-9; assay: microbe, parasite or virus in culture; set-up: species or system gram-positive clinical isolates; conditions: Staphylococcus aureus, MRSA
[14] = test system: Staphylococcus aureus MSSA 15-1; assay: microbe, parasite or virus in culture; set-up: species or system gram-positive clinical isolates; conditions: Staphylococcus aureus, MSSA
[15] = test system: Staphylococcus aureus MSSA 15-7; assay: microbe, parasite or virus in culture; set-up: species or system gram-positive clinical isolates; conditions: Staphylococcus aureus, MSSA
[16] = test system: Staphylococcus aureus MSSA 15-8; assay: microbe, parasite or virus in culture; set-up: species or system gram-positive clinical isolates; conditions: Staphylococcus aureus, MSSA
[17] = test system: Staphylococcus epidermidis MRSE 15-1; assay: microbe, parasite or virus in culture; set-up: species or system gram-positive clinical isolates; conditions: Staphylococcus epidermidis, MRSE
[18] = test system: Staphylococcus epidermidis MRSE 15-2; assay: microbe, parasite or virus in culture; set-up: species or system gram-positive clinical isolates; conditions: Staphylococcus epidermidis, MRSE
[19] = test system: Staphylococcus epidermidis MRSE 15-80; assay: microbe, parasite or virus in culture; set-up: species or system gram-positive clinical isolates; conditions: Staphylococcus epidermidis, MRSE
[20] = test system: Staphylococcus epidermidis MRSE 15-82; assay: microbe, parasite or virus in culture; set-up: species or system gram-positive clinical isolates; conditions: Staphylococcus epidermidis, MRSE
[21] = test system: Staphylococcus epidermidis MRSE 15-83; assay: microbe, parasite or virus in culture; set-up: species or system gram-positive clinical isolates; conditions: Staphylococcus epidermidis, MRSE
[22] = test system: Staphylococcus epidermidis MRSE 17-1; assay: microbe, parasite or virus in culture; set-up: species or system gram-positive clinical isolates; conditions: Staphylococcus epidermidis, MRSE
[23] = test system: Staphylococcus epidermidis MRSE 17-3; assay: microbe, parasite or virus in culture; set-up: species or system gram-positive clinical isolates; conditions: Staphylococcus epidermidis, MRSE
[24] = test system: Staphylococcus epidermidis MSSE 15-4; assay: microbe, parasite or virus in culture; set-up: species or system gram-positive clinical isolates; conditions: Staphylococcus epidermidis, MSSE154, read-out: MIC(μg/ml) / 1b
S. aureus ATCC 29213 = assay: microbe, parasite or virus in culture; conditions: Staphylococcus aureus, ATCC29213, read-out: MIC (µg/mL)
in vitro [25] = conditions: mouse, liver microsomes
in vitro [26] = conditions: Mouse plasma
[27] = read-out: MIC(μg/ml) / vancomycin

`CCCCCOc1ccc(C(=O)NNC(=S)NC(C)=O)cc1` [1b, N-(2-(4-(n-pentoxy)benzoyl)hydrazine-1-carbonothioyl)acetamide] gave an MIC ([1]; EFA1555, read-out: MIC(μg/ml) / 1b) of 8 µg/mL (≈ 24.7 µM), an MIC ([2]; EFA1557, read-out: MIC(μg/ml) / 1b) of 4 µg/mL (≈ 12.4 µM) and an MIC ([3]; EFA1560, read-out: MIC(μg/ml) / 1b) of 8 µg/mL (≈ 24.7 µM). The MIC ([4]; EFM151, read-out: MIC(μg/ml) / 1b) was 8 µg/mL (≈ 24.7 µM), the MIC ([5]; EFM152, read-out: MIC(μg/ml) / 1b) was 4 µg/mL (≈ 12.4 µM) and the MIC ([6]; EFM1552, read-out: MIC(μg/ml) / 1b) was 8 µg/mL (≈ 24.7 µM). It also gave an MIC ([7]; EFM156, read-out: MIC(μg/ml) / 1b) of 2 µg/mL (≈ 6.18 µM), an MIC ([8]; read-out: MIC(μg/ml) / 1b) of 4 µg/mL (≈ 12.4 µM) and an MIC ([9]; read-out: MIC(μg/ml) / 1b) of 4 µg/mL (≈ 12.4 µM). For the same molecule, the MIC ([10]; read-out: MIC(μg/ml) / 1b) was 2 µg/mL (≈ 6.18 µM), the MIC ([11]; read-out: MIC(μg/ml) / 1b) was 2 µg/mL (≈ 6.18 µM) and the MIC ([12]; read-out: MIC(μg/ml) / 1b) was 2 µg/mL (≈ 6.18 µM). The MIC ([13]; read-out: MIC(μg/ml) / 1b) was 2 µg/mL (≈ 6.18 µM), the MIC ([14]; read-out: MIC(μg/ml) / 1b) was 1 µg/mL (≈ 3.09 µM) and the MIC ([15]; read-out: MIC(μg/ml) / 1b) was 2 µg/mL (≈ 6.18 µM). For the same molecule, the MIC ([16]; read-out: MIC(μg/ml) / 1b) was 2 µg/mL (≈ 6.18 µM), the MIC ([17]; read-out: MIC(μg/ml) / 1b) was 4 µg/mL (≈ 12.4 µM) and the MIC ([18]; read-out: MIC(μg/ml) / 1b) was 4 µg/mL (≈ 12.4 µM). It also gave an MIC ([19]; read-out: MIC(μg/ml) / 1b) of 1 µg/mL (≈ 3.09 µM), an MIC ([20]; read-out: MIC(μg/ml) / 1b) of 1 µg/mL (≈ 3.09 µM) and an MIC ([21]; read-out: MIC(μg/ml) / 1b) of 1 µg/mL (≈ 3.09 µM). The MIC ([22]; read-out: MIC(μg/ml) / 1b) was 0.5 µg/mL (≈ 1.55 µM), the MIC ([23]; read-out: MIC(μg/ml) / 1b) was 1 µg/mL (≈ 3.09 µM) and the MIC [24] was 1 µg/mL (≈ 3.09 µM). For the same molecule, the MIC (S. aureus ATCC 29213) was 0.78 µg/mL (≈ 2.41 µM), the microsomal CLint (in vitro [25]) was 49 µL/min/mg and the “Mouse plasma T1/2” value (in vitro [26]) was >2 h.
With `CN[C@H](CC(C)C)C(=O)N[C@H]1C(=O)N[C@@H](CC(N)=O)C(=O)N[C@H]2C(=O)N[C@H]3C(=O)N[C@H](C(=O)N[C@H](C(=O)O)c4cc(O)cc(O)c4-c4cc3ccc4O)[C@H](O)c3ccc(c(Cl)c3)Oc3cc2cc(c3O[C@@H]2O[C@H](CO)[C@@H](O)[C@H](O)[C@H]2O[C@H]2C[C@](C)(N)[C@H](O)[C@H](C)O2)Oc2ccc(cc2Cl)[C@H]1O` [vancomycin] the MIC ([1]; EFA1555, read-out: MIC(μg/ml) / vancomycin) was 0.5 µg/mL (≈ 0.345 µM), the MIC ([2]; EFA1557, read-out: MIC(μg/ml) / vancomycin) was 2 µg/mL (≈ 1.38 µM) and the MIC ([3]; EFA1560, read-out: MIC(μg/ml) / vancomycin) was 8 µg/mL (≈ 5.52 µM). It also gave an MIC ([4]; EFM151, read-out: MIC(μg/ml) / vancomycin) of 1 µg/mL (≈ 0.69 µM), an MIC ([5]; EFM152, read-out: MIC(μg/ml) / vancomycin) of 2 µg/mL (≈ 1.38 µM) and an MIC ([6]; EFM1552, read-out: MIC(μg/ml) / vancomycin) of 2 µg/mL (≈ 1.38 µM). It also gave an MIC ([7]; EFM156, read-out: MIC(μg/ml) / vancomycin) of 1 µg/mL (≈ 0.69 µM), an MIC [8, 27] of 2 µg/mL (≈ 1.38 µM) and an MIC [9, 27] of 1 µg/mL (≈ 0.69 µM). It also gave an MIC [10, 27] of 1 µg/mL (≈ 0.69 µM), an MIC [11, 27] of 0.25 µg/mL (≈ 0.173 µM) and an MIC [12, 27] of 0.5 µg/mL (≈ 0.345 µM). The MIC [13, 27] was 0.5 µg/mL (≈ 0.345 µM), the MIC [14, 27] was 1 µg/mL (≈ 0.69 µM) and the MIC [15, 27] was 1 µg/mL (≈ 0.69 µM). For the same molecule, the MIC [16, 27] was 0.5 µg/mL (≈ 0.345 µM), the MIC [17, 27] was 2 µg/mL (≈ 1.38 µM) and the MIC [18, 27] was 2 µg/mL (≈ 1.38 µM). It also gave an MIC [19, 27] of 2 µg/mL (≈ 1.38 µM), an MIC [20, 27] of 1 µg/mL (≈ 0.69 µM) and an MIC [21, 27] of 1 µg/mL (≈ 0.69 µM). It also gave an MIC [22, 27] of 1 µg/mL (≈ 0.69 µM) and an MIC [23, 27] of 2 µg/mL (≈ 1.38 µM).
